How the values were obtained:
[1] = molecular target: T1, Peroxisome proliferator-activated receptor alpha (Homo sapiens) (UniProt Q07869); assay: Agonist activity at PPARalpha in HEK293 cells at 1 uM by GAL4 transactivation assay relative to GW-2331; type: functional, cell-based
T1 sequence (whole entry): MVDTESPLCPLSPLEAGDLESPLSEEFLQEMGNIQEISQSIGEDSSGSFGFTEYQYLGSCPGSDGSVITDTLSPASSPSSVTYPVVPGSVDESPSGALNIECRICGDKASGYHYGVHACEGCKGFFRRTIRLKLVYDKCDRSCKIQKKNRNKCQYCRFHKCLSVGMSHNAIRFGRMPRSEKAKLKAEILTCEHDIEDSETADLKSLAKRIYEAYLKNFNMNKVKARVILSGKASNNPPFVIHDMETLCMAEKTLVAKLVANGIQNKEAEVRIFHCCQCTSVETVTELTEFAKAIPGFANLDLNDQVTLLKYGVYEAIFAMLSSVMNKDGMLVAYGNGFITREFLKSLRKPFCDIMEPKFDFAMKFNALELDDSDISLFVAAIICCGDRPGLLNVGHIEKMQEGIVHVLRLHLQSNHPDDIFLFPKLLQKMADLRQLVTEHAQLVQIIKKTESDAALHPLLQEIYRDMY

[2] = molecular target: T2, Peroxisome proliferator-activated receptor alpha (Homo sapiens, UniProt Q07869)
T2 sequence (Q07869 whole entry): T1 sequence (whole entry)

[3] = molecular target: T2, Peroxisome proliferator-activated receptor alpha; assay: Agonist activity at PPARalpha in HEK293 cells by GAL4 transactivation assay; type: functional, cell-based
[4] = molecular target: T3, Peroxisome proliferator-activated receptor gamma (Homo sapiens, UniProt P37231)
T3 sequence (P37231 whole entry): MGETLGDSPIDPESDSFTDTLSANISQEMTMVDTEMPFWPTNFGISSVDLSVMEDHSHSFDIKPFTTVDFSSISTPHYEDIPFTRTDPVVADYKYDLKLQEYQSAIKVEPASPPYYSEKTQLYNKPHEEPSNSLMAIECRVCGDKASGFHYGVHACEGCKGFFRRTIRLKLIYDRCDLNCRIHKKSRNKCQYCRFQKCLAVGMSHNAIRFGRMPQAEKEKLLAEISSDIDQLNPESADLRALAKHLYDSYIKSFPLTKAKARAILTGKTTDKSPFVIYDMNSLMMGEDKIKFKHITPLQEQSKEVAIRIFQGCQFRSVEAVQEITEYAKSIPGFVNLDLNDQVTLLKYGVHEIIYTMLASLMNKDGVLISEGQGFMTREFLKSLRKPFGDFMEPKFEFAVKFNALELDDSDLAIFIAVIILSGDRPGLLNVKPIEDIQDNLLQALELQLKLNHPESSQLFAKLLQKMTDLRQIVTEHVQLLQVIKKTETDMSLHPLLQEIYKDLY
Description: Agonist activity at PPARgamma in HEK293 cells by GAL4 transactivation assay

[5] = molecular target: T3, Peroxisome proliferator-activated receptor gamma; assay: Inhibition of PPARgamma
Cytochrome P450 3A4 [6] = molecular target: T4, Cytochrome P450 3A4 (Homo sapiens, UniProt P08684); assay: Inhibition of CYP3A4 in presence of 7-benzyloxy-4-trifluoromethyl coumarin substrate; type: ADME
Liver = assay: Drug concentration in db/db mouse liver at 10 mg/kg/day, po qd after 14 days; type: ADME, organism-based; design: route oral; settings: in vivo, 336 h
Mus musculus [7] = assay: Decrease in plasma triglyceride level in db/db mouse at 10 mg/kg/day, po qd after 14 days; type: functional; design: scale not given: the % may be the effect or the level left
Cytochrome P450 3A4 [8] = molecular target: T4, Cytochrome P450 3A4; assay: Inhibition of CYP3A4 in presence of 7-benzyloxyresorufin substrate; type: ADME
Mus musculus [9] = assay: Decrease in plasma triglyceride level in db/db mouse at 10 mg/kg/day, po qd after 3 weeks; type: functional; design: scale not given: the % may be the effect or the level left
Cytochrome P450 2C9 = Cytochrome P450 2C9 (Homo sapiens, UniProt P11712); assay: Inhibition of CYP2C9; type: ADME
[10] = Drug concentration in db/db mouse plasma at 10 mg/kg/day, po qd after 14 days; type: ADME, organism-based; design: route oral
Mus musculus [11] = assay: Decrease in plasma glucose level in db/db mouse at 10 mg/kg/day, po qd after 14 days; type: functional; design: scale not given: the % may be the effect or the level left
Cytochrome P450 2C19 = Cytochrome P450 2C19 (Homo sapiens, UniProt P33261); assay: Inhibition of CYP2C19; type: ADME
Adipose tissue = assay: Drug concentration in db/db mouse adipose at 10 mg/kg/day, po qd after 14 days; type: ADME, organism-based; design: route oral; settings: in vivo, 336 h
[12] = molecular target: Voltage-gated inwardly rectifying potassium channel KCNH2 (Homo sapiens, UniProt Q12809); assay: Inhibition of human ERG by FLIPR assay
Voltage-gated inwardly rectifying potassium channel KCNH2, sequence (Q12809 whole entry): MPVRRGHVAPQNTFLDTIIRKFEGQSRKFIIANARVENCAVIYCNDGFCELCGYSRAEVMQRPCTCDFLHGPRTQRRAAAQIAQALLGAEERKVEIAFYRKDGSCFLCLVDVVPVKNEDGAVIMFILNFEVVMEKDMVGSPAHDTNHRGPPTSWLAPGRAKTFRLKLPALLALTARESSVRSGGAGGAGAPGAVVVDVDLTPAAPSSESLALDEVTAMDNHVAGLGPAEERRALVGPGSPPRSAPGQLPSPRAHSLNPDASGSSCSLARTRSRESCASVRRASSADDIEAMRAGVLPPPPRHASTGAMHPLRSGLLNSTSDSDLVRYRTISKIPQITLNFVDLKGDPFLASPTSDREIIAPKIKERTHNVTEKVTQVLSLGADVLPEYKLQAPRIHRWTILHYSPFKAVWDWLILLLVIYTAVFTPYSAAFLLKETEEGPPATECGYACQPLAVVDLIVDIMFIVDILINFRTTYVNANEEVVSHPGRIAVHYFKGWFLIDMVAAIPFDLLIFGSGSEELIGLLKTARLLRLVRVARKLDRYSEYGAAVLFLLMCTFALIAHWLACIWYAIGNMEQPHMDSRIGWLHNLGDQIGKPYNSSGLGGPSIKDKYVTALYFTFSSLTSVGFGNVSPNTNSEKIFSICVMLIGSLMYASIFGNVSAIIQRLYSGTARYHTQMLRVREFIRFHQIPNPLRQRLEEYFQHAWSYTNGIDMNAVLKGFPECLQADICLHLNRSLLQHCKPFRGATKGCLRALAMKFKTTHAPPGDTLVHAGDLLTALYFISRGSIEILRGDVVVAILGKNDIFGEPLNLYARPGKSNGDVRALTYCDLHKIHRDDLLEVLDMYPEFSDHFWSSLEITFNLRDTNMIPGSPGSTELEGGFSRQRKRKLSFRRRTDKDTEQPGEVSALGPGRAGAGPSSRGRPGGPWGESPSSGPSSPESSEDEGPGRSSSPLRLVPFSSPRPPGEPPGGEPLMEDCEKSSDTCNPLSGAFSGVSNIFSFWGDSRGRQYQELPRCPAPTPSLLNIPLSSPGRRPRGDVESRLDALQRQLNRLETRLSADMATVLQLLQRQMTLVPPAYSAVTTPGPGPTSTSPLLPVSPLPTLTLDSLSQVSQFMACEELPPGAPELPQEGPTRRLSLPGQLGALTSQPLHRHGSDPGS

Cytochrome P450 2C19, sequence (P33261 whole entry): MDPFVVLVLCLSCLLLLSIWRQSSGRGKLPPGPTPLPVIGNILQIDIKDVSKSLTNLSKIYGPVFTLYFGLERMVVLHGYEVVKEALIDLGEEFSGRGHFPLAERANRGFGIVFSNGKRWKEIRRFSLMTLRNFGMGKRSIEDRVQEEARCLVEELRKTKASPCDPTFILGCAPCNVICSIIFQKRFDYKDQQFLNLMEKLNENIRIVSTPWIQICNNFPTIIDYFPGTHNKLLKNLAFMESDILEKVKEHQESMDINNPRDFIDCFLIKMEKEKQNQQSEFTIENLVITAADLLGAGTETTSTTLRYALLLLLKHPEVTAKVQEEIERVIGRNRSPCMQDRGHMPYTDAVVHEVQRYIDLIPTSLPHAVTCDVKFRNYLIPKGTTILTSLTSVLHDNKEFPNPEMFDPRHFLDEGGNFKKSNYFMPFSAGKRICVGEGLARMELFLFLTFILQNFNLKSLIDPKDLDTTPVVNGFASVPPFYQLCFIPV
Cytochrome P450 2C9, sequence (P11712 whole entry): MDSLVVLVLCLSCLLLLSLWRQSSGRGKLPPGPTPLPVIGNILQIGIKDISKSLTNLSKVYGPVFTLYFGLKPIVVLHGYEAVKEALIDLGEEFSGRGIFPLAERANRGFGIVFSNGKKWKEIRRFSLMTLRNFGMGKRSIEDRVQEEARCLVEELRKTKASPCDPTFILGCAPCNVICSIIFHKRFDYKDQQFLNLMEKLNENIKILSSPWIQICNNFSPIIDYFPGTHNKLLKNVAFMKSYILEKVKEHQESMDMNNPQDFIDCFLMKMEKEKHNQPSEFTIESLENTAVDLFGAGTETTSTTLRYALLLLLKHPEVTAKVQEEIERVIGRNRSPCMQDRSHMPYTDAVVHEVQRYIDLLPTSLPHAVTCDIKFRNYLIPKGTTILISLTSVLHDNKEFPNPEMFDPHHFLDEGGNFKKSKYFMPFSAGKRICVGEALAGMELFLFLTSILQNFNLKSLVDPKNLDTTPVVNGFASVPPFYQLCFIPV
T4 sequence (P08684 whole entry): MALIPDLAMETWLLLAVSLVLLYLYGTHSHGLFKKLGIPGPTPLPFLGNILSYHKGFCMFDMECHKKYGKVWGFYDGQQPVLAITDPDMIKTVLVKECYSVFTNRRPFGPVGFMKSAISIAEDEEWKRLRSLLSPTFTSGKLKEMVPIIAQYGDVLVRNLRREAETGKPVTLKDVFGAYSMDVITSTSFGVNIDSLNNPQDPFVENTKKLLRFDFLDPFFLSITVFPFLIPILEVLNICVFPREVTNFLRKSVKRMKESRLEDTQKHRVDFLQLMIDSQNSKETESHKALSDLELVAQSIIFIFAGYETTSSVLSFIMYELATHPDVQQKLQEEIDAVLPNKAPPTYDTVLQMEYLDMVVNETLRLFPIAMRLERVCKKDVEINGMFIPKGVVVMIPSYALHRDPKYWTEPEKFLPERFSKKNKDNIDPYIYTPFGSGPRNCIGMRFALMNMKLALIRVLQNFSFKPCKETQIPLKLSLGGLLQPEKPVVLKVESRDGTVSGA

Structure (SMILES)	Intrinsic activity [1] [%]	IC50 [2] [nM]	EC50 [3] [nM]	IC50 [5] [nM]	IC50 (Cytochrome P450 2C19) [nM]	EC50 [4] [nM]	IC50 (Cytochrome P450 3A4 [6]) [nM]	Drug uptake (Liver) [nmol/g]	Activity (Mus musculus [7]) [%]	IC50 (Cytochrome P450 3A4 [8]) [nM]	Activity (Mus musculus [9]) [%]	IC50 (Cytochrome P450 2C9) [nM]	concentration at 336 h [10] [nM]	Activity (Mus musculus [11]) [%]	Drug uptake (Adipose tissue) [nmol/g]	IC50 [12] [nM]
COc1ccc(N2C(=O)[C@H](Cc3ccc(OCCc4nc(-c5ccccc5)oc4C)cc3)[C@@H]2C(=O)O)cc1	–	> 15000	> 7500	3400	–	–	–	–	–	–	–	–	–	–	–	–
Cc1oc(-c2ccccc2)nc1CCOc1cccc(C[C@@H]2C(=O)N(c3ccc(C(C)(C)C)cc3)[C@@H]2C(=O)O)c1	–	80	40	40	–	120	17000	7.4	-52	19000	61	230	870	-17	–	–
COc1ccc(N2C(=O)[C@@H](Cc3cccc(OCCc4nc(-c5ccccc5)oc4C)c3)[C@H]2C(=O)O)cc1	> 90	360	70	100	–	90	50000	10.4	0	830	–	2200	2800	-43	0.29	–
Cc1oc(-c2ccccc2)nc1CCOc1ccc(C[C@H]2C(=O)N(c3ccc(C(C)(C)C)cc3)[C@H]2C(=O)O)cc1	–	> 15000	970	4240	–	500	> 40000	–	–	> 40000	–	3000	–	–	–	–
COc1ccc(N2C(=O)[C@H](Cc3cccc(OCCc4nc(-c5ccccc5)oc4C)c3)[C@@H]2C(=O)O)cc1	–	> 15000	> 7500	1100	–	840	–	–	–	–	–	–	–	–	–	–
COc1ccc(N2C(=O)C(Cc3cccc(OCCc4nc(-c5ccccc5)oc4C)c3)C2C(=O)O)cn1 (racemic)	> 90	1300	90	230	–	70	–	–	–	–	–	–	–	–	–	–
COc1ccc(N2C(=O)[C@@H](Cc3ccc(OCCc4nc(-c5ccccc5)oc4C)cc3)[C@H]2C(=O)O)cc1	> 90	730	150	40	–	20	33000	–	–	26000	–	14000	–	–	–	54000
COc1ccc(OC(=O)N(CC(=O)O)Cc2ccc(OCCc3nc(-c4ccccc4)oc3C)cc2)cc1 [MURAGLITAZAR]	–	–	–	–	–	–	–	25	-33	–	–	–	103000	-54	3	–
CCCCCCCN(CCc1ccc(O[C@@](C)(CC)C(=O)O)cc1)C(=O)Nc1ccc(F)cc1F	> 90	740	45	600	–	243	–	–	–	–	–	–	–	–	–	–
COc1ccc(N2C(=O)C(Cc3cccc(OCCc4nc(-c5ccccc5)oc4C)c3)C2C(=O)O)cc1 (racemic)	> 90	690	140	160	–	180	–	–	–	–	–	–	–	–	–	–
Cc1oc(-c2ccccc2)nc1CCOc1ccc(C[C@@H]2C(=O)N(c3ccc(C(C)(C)C)cc3)[C@@H]2C(=O)O)cc1	> 90	790	10	110	–	4	> 40000	–	–	28000	–	2300	–	–	–	–
Cc1oc(-c2ccccc2)nc1CCOc1cccc(C[C@H]2C(=O)N(c3ccc(C(C)(C)C)cc3)[C@H]2C(=O)O)c1	–	> 15000	5400	800	–	410	20000	–	–	–	–	670	–	–	–	–

The next lines start with results.

Intrinsic activity [1] [%]	IC50 [2] [nM]	EC50 [3] [nM]	IC50 [5] [nM]	IC50 (Cytochrome P450 2C19) [nM]	Structure (SMILES)	EC50 [4] [nM]	IC50 (Cytochrome P450 3A4 [6]) [nM]	Drug uptake (Liver) [nmol/g]	Activity (Mus musculus [7]) [%]	IC50 (Cytochrome P450 3A4 [8]) [nM]	Activity (Mus musculus [9]) [%]	IC50 (Cytochrome P450 2C9) [nM]	concentration at 336 h [10] [nM]	Activity (Mus musculus [11]) [%]	Drug uptake (Adipose tissue) [nmol/g]	IC50 [12] [nM]
> 90	1400	230	360	–	Cc1oc(-c2ccccc2)nc1CCOc1cccc(CC2C(=O)N(c3ccc(Cl)cc3)C2C(=O)O)c1 (racemic)	130	–	–	–	–	–	–	–	–	–	–
> 90	480	5	670	2800	Cc1oc(-c2ccc(Cl)cc2)nc1CCOc1cccc(C[C@@H]2C(=O)N(c3ccc(C(C)(C)C)cc3)[C@@H]2C(=O)O)c1	60	4700	–	–	–	–	410	–	–	–	–
> 90	860	60	250	5300	Cc1oc(-c2cccc(Cl)c2)nc1CCOc1cccc(C[C@@H]2C(=O)N(c3ccc(C(C)(C)C)cc3)[C@@H]2C(=O)O)c1	100	–	–	–	20000	–	670	–	–	–	–
> 90	520	40	110	8300	COc1cccc(-c2nc(CCOc3cccc(C[C@@H]4C(=O)N(c5ccc(C(C)(C)C)cc5)[C@@H]4C(=O)O)c3)c(C)o2)c1	40	–	–	–	19000	–	650	–	–	–	–
> 90	2400	110	180	–	Cc1oc(-c2ccccc2)nc1CCOc1cccc(CC2C(=O)N(c3ccc(F)cc3)C2C(=O)O)c1 (racemic)	30	–	–	–	–	–	–	–	–	–	–
> 90	460	8	220	–	COc1ccc(-c2nc(CCOc3cccc(C[C@@H]4C(=O)N(c5ccc(C(C)(C)C)cc5)[C@@H]4C(=O)O)c3)c(C)o2)cc1	40	–	–	–	12000	–	–	–	–	–	–

— ChEMBL document CHEMBL1142250, “Discovery of azetidinone acids as conformationally-constrained dual PPARalpha/gamma agonists” (Bioorg Med Chem Lett, 2008)
